Structures can show the parent of a compound that is named as a salt. Where two headings read alike, the source gives them in different places.
System: iCell cardiomyocytes (human iPSC-derived cardiomyocytes)
Experiment: Intracellular Ca2+ flux / beating parameters in iCell cardiomyocytes (FLIPR tetra), 90 min or 24 h
Type: cell-based
Details: Homo sapiens, Cardiomyocyte, 0.00 µM = 100.00; for activity at 0.1 µM: 0.10 µM
Method in brief: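 Gelatin-plated iCell cardiomyocytes (5,000/well) were dye-loaded for 2 h at 37 °C, then exposed for 90 min or 24 h to PCBs/metabolites (5× plates at 0.05–500 µM; 0.5% DMSO final) in triplicate. Ca2+ flux was read for 100 s at 8 Hz and 37 °C. Peak height, frequency, spacing CV and decay/rise ratio were vehicle-normalized and fitted with a four-parameter logistic model, with POD set at 1 SD of vehicle.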

[1] = 1.5 h, read-out: cm.amp.avg.90min
[2] = 1.5 h, read-out: cm.amp.cv.90min
[3] = 1.5 h, read-out: cm.decay.rise.90min
[4] = 1.5 h, read-out: cm.spacing.cv.90min
[5] = 24 h, read-out: cm.amp.avg.24hrs
[6] = 24 h, read-out: cm.amp.cv.24hrs
[7] = 24 h, read-out: cm.decay.rise.24hrs
[8] = 24 h, read-out: cm.spacing.cv.24hrs

O=S(=O)(O)Oc1cc(-c2ccccc2)ccc1Cl [3-yl PCB 3 sulfate]
activity at 0.01 µM [1]: 95.2%
activity at 0.01 µM [2]: 101%
activity at 0.01 µM (1.5 h, read-out: cm.bpm.90min): 96.5%
activity at 0.01 µM [3]: 101%
activity at 0.01 µM [4]: 112%
activity at 0.1 µM [1]: 102%
activity at 0.1 µM [2]: 103%
activity at 0.1 µM (1.5 h, read-out: cm.bpm.90min): 97.8%
activity at 0.1 µM [3]: 105%
activity at 0.1 µM [4]: 107%
activity at 1 µM [1]: 96.9%
activity at 1 µM [2]: 94.9%
activity at 1 µM (1.5 h, read-out: cm.bpm.90min): 99.1%
activity at 1 µM [3]: 97.7%
activity at 1 µM [4]: 102%
activity at 10 µM [1]: 97.3%
activity at 10 µM [2]: 107%
activity at 10 µM (1.5 h, read-out: cm.bpm.90min): 96.5%
activity at 10 µM [3]: 96.9%
activity at 10 µM [4]: 101%
activity at 100 µM [1]: 113%
activity at 100 µM [2]: 90.5%
activity at 100 µM (1.5 h, read-out: cm.bpm.90min): 99.1%
activity at 100 µM [3]: 95.6%
activity at 100 µM [4]: 92.1%
activity at 0.01 µM [5]: 58.6%
activity at 0.01 µM [6]: 42.1%
activity at 0.01 µM (24 h, read-out: cm.bpm.24hrs): 49.6%
activity at 0.01 µM [7]: 54.9%
activity at 0.01 µM [8]: 62.7%
activity at 0.1 µM [5]: 51.9%
activity at 0.1 µM [6]: 31.8%
activity at 0.1 µM (24 h, read-out: cm.bpm.24hrs): 47.7%
activity at 0.1 µM [7]: 58%
activity at 0.1 µM [8]: 42.3%
activity at 1 µM [5]: 26.2%
activity at 1 µM [6]: 69.1%
activity at 1 µM (24 h, read-out: cm.bpm.24hrs): 46.8%
activity at 1 µM [7]: 51.2%
activity at 1 µM [8]: 53.3%
activity at 10 µM [5]: 79.1%
activity at 10 µM [6]: 146%
activity at 10 µM (24 h, read-out: cm.bpm.24hrs): 94.5%
activity at 10 µM [7]: 96.3%
activity at 10 µM [8]: 96.4%
activity at 100 µM [5]: 97.7%
activity at 100 µM [6]: 77.4%
activity at 100 µM (24 h, read-out: cm.bpm.24hrs): 85%
activity at 100 µM [7]: 116%
activity at 100 µM [8]: 85.3%

Oc1ccc(-c2ccc(Cl)cc2)cc1 [4'-OH PCB3]
activity at 0.01 µM [1]: 95.4%
activity at 0.01 µM [2]: 111%
activity at 0.01 µM (1.5 h, read-out: cm.bpm.90min): 97.8%
activity at 0.01 µM [3]: 97.5%
activity at 0.01 µM [4]: 120%
activity at 0.1 µM [1]: 101%
activity at 0.1 µM [2]: 107%
activity at 0.1 µM (1.5 h, read-out: cm.bpm.90min): 100%
activity at 0.1 µM [3]: 97.1%
activity at 0.1 µM [4]: 108%
activity at 1 µM [1]: 105%
activity at 1 µM [2]: 100%
activity at 1 µM (1.5 h, read-out: cm.bpm.90min): 104%
activity at 1 µM [3]: 95.9%
activity at 1 µM [4]: 106%
activity at 10 µM [1]: 97.2%
activity at 10 µM [2]: 100%
activity at 10 µM (1.5 h, read-out: cm.bpm.90min): 118%
activity at 10 µM [3]: 89.6%
activity at 10 µM [4]: 116%
activity at 100 µM [1]: 0%
activity at 100 µM [2]: 0%
activity at 100 µM (1.5 h, read-out: cm.bpm.90min): 0%
activity at 100 µM [3]: 0%
activity at 100 µM [4]: 0%
activity at 0.01 µM [5]: 91%
activity at 0.01 µM [6]: 37.2%
activity at 0.01 µM (24 h, read-out: cm.bpm.24hrs): 53.5%
activity at 0.01 µM [7]: 43%
activity at 0.01 µM [8]: 53.2%
activity at 0.1 µM [5]: 31.1%
activity at 0.1 µM [6]: 82.3%
activity at 0.1 µM (24 h, read-out: cm.bpm.24hrs): 54.4%
activity at 0.1 µM [7]: 43.8%
activity at 0.1 µM [8]: 53.7%
activity at 1 µM [5]: 32%
activity at 1 µM [6]: 67.1%
activity at 1 µM (24 h, read-out: cm.bpm.24hrs): 49.6%
activity at 1 µM [7]: 51%
activity at 1 µM [8]: 47.2%
activity at 10 µM [5]: 54.4%
activity at 10 µM [6]: 55%
activity at 10 µM (24 h, read-out: cm.bpm.24hrs): 48.7%
activity at 10 µM [7]: 58.5%
activity at 10 µM [8]: 51.4%
activity at 100 µM [5]: 0%
activity at 100 µM [6]: 0%
activity at 100 µM (24 h, read-out: cm.bpm.24hrs): 0%
activity at 100 µM [7]: 0%
activity at 100 µM [8]: 0%
